Molecular target: Coagulation factor X (Homo sapiens, UniProt P00742)
Experiment: Inhibition of human factor 10a

Coagulation factor X, sequence (P00742 41-179 limits assumed): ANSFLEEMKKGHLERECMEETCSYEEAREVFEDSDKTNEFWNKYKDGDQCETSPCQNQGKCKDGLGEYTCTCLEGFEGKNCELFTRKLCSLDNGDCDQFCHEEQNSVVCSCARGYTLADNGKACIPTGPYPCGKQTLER
Coagulation factor X, sequence (P00742 235-488 limits assumed): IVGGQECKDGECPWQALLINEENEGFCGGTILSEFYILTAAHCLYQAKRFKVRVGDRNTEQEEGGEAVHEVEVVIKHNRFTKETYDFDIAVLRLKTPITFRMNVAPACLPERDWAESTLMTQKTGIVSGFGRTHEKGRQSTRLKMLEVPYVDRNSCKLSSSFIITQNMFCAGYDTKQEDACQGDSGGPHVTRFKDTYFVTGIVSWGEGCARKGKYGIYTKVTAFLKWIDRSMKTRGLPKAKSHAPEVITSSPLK

SMILES | Ki [nM]
COc1ccc2ccc(S(=O)(=O)NC3CCN(Cc4cc(C(=N)N)ccc4O)C3=O)cc2c1 (stereo not given) | 3.16
COC(=O)COc1ccc(C(=N)N)cc1CN1CCC(NS(=O)(=O)c2ccc3ccc(OC)cc3c2)C1=O (stereo not given) | 7.94
COc1ccc2ccc(S(=O)(=O)NC3CCN(Cc4cc(C(=N)N)ccc4OCC(=O)O)C3=O)cc2c1 (stereo not given) | 1260
COc1ccc(-n2nc(C(F)(F)F)c3c2C(=O)N(c2ccc(-c4ccccc4CN4CCC(O)C4)cc2)CC3)cc1 (stereo not given) | 0.501
COc1ccc(-n2nc(C(F)(F)F)c3c2C(=O)N(c2ccc(-c4ccccc4S(C)(=O)=O)cc2)CC3)cc1 | 0.2
COc1ccc2ccc(S(=O)(=O)NC3CCN(Cc4cc(C(=N)N)ccc4N)C3=O)cc2c1 (stereo not given) | 6.31

More lines, in order of falling Ki, values ahead:

Ki [nM] | SMILES
1260 | COc1ccc2ccc(S(=O)(=O)NC3CCN(Cc4cc(N)cc(C(=N)N)c4)C3=O)cc2c1 (stereo not given)
1000 | COc1ccc2ccc(S(=O)(=O)NC3CCN(Cc4ccc(O)c(C(=N)N)c4)C3=O)cc2c1 (stereo not given)
200 | COc1ccc(-n2nc(C(F)(F)F)c3c2C(=O)N(c2ccc(NC(C)=O)cc2)CC3)cc1
6.31 | COc1ccc(-n2nc(C(F)(F)F)c3c2C(=O)N(c2ccc(N(C)C)cc2)CC3)cc1
